Series [1] in a line: long term (28 day) toxicity exposure. Format: in vivo. To be noted: 28 day exposure.
A short description of series [2]: miscibility with mineral oil. The format is physicochemical. Particulars: for Miscibility: with mineral oil, concentration up to which miscible. The text has this:
In addition, the compounds of the present invention have good miscibility with lubricants, including lubricants used in vapour compression refrigeration systems. For example, the Compounds 1 and 3 are fully miscible with e mineral oil at concentrations up to about 66.7 weight percent as indicated in the following table.

A short description of the next series: flash point (ASTM D3828). The format is physicochemical. As to the method:
Flash Point refers the lowest temperature at which vapors of the liquid will […] as determined in accordance with ASTM D3828.
Non-flammable in the context of a thermal management composition or fluid means compounds or compositions which are determined to be non-flammable. The flash point of a thermal management composition or fluid refers the lowest temperature at which vapors of the composition will keep burning after the ignition source is removed as determined in accordance with ASTM D3828.

Series [3] can be described thus: short term (4 hour) toxicity exposure. To be noted: 4 hour exposure. The format is in vivo. The text has this: LC50 is a measure of the acute toxicity of a compound. The acute inhalation toxicity of a compound can be assessed using the method described in the OECD Guideline for Testing of Chemicals No. 403 “Acute Inhalation Toxicity” (2009), Method B.2. (Inhalation) of Commission Regulation (EC) No. 440/2008.

A short description of another series: heat of vaporization. The format is physicochemical.

The values below come from patent publication US20240376363A1, “FLUORINE SUBSTITUTED CYCLOBUTENE COMPOUNDS, AND COMPOSITIONS, METHODS AND USES INCLUDING SAME” (HONEYWELL INTERNATIONAL INC., priority 2021, published 2024).

On to `FC1=C(Cl)CC1(F)F` [Compound 1, 1-chloro-2,3,3-trifluorocyclo-1-ene], for which, in series [1], the “long term (28 day) toxicity exposure” value is on record as “failed”. For the same compound, the Miscibility result in series [2] is “Miscible up to 66.7%”. Further, in the series “flash point (ASTM D3828)”, the “Flash Point” value is on record as “No flash point”. The “Normal Boiling Point” value in “normal boiling point” was determined as 52 °C. In the case of `FC1=CCC1(F)F` [Compound 2, 1,4,4-trifluorocyclobut-1-ene], in series [2] (ratio compound to mineral oil), the “Miscibility with mineral oil” value is “Not miscible”. The “Flash Point” value in the series “flash point (ASTM D3828)” is reported as “Flash point observed”. The “Normal Boiling Point” value in “normal boiling point” worked out at 32 °C.

As to `FC1(F)C(Cl)=C(Cl)C1(F)F` [Compound 3, 1,2-dichloro-3,3,4,4-tetrafluorocyclobut-1-ene], in series [3], the “short term (4 hour) toxicity exposure” value is “failed”. Also, the Miscibility entry in series [2] was “Miscible up to 66.7%”. Moreover, the “Flash Point” value in the series “flash point (ASTM D3828)” was “No flash point”. The “Normal Boiling Point” value in the series “normal boiling point” came to 58 °C. On to `COC1=C(Cl)C(F)(F)C1(F)F` [Compound 4], for which, in “normal boiling point”, the “Normal Boiling Point” value turned out to be 110 °C. Regarding `COC1=C(OC)C(F)(F)C1(F)F` [Compound 11, 3,3,4,4-tetrafluoro-1,2-dimethoxycyclobut-1-ene], the “Normal Boiling Point” value in the series “normal boiling point” was 127 °C. `FC(F)(F)OC1=C(OC(F)(F)F)C(F)(F)C1(F)F` [Compound 13]: the Heat of Vaporization in “heat of vaporization” worked out at 7.65 kcal/mol. The “Normal Boiling Point” value in the series “normal boiling point” was found to be 144 °C.

Consider `FC1=C(OC(C(F)(F)F)C(F)(F)F)C(F)(F)C1(F)F` [Compound 14, 1,3,3,4,4-pentafluoro-2-((1,1,1,3,3,3-hexafluoropropan-2-yl)oxy)cyclobut-1-ene], for which the Heat of Vaporization in the series “heat of vaporization” is 7.41 kcal/mol. Still for that read-out and setting: as for `FC(F)(F)C(OC1=C(OC(C(F)(F)F)C(F)(F)F)C(F)(F)C1(F)F)C(F)(F)F` [Compound 15, 3,3,4,4-pentafluoro-1,2-bis((1,1,1,3,3,3-hexafluoropropan-2-yl)oxy) cyclobut-1-ene], the figure is 8.13 kcal/mol; as for `FC1=C(Oc2ccccc2)C(F)(F)C1(F)F` [Compound 16, ((perfluorocyclobut-1-en-1-yl)oxy)benzene], 10 kcal/mol.

`FC1(F)C(Oc2ccccc2)=C(Oc2ccccc2)C1(F)F` [Compound 17, ((perfluorocyclobut-1-ene-1,2-diyl)bis(oxy))dibenzene] yielded a Heat of Vaporization in the series “heat of vaporization” of 17.9 kcal/mol. Same read-out and setting: as for `FC(F)(F)COC1=C(Cl)C(F)(F)C1(F)F` [Compound 18, 1-chloro-3,3,4,4-tetrafluoro-2-(2,2,2-trifluoroethoxy) cyclobut-1-ene], the figure is 9.08 kcal/mol.
